Consider one compound from US11554133B2, “Bile acid synthesis promoter, composition for promoting bile acid synthesis and food composition for promoting bile acid synthesis” (KRACIE HOLDINGS, LTD., priority 2017, dated 2023).

One series relates to FXR of the liver. Description: Liver FXR mRNA expression by qPCR. The format is in vivo. The following applies: db/db mice, 0.2% arctigenin diet nine weeks, qPCR vs 18S rRNA, Student's t-test. The protocol:
(§1) Using 5-week-old male db/db mice (BKS.Cg−+Leprdb/+Leprdb/Jcl, purchased from CLEA Japan, Inc.) that were leptin receptor-deficient model, the experiments were started after one-week preliminary rearing. The animals were reared under the environment of 23.0±5° C. of temperature, 50.0±10% of humidity and 12 hours of light-dark cycle. The animal experiments were approved by animal care and use committee of Keio University and carried out based on animal experiment rules of Keio University.
(§2) After preliminary rearing, mice were divided into two groups of (a) control group and (b) arctigenin administrated group (AG group) (each group n=8), and made AG group intake purified diet combined with arctigenin (>98.0%) 0.2% and purified diet (AIN-93G) for control group freely for nine weeks. After administration, 18-hour fasting was performed, and blood specimens were collected from abdominal vena cava under anesthesia, and the liver and the small intestine were sampled.
(§3) After having performed extraction of total RNA from the obtained organs and cDNA synthesis on each group, the expression level of Cyp8b1, SHP, FXR and FGF4R of the liver which are the liver cholesterol metabolism-related genes and small intestinal FGF15 and SHP were compared by qPCR. As control, 18S rRNA was used. […]
(In general: Quantitative PCR measures a nucleic acid by following its amplification.)

The conditions of series [1]: general statement, no test described; cited from earlier work.
In the next series the test system is FGF4R of the liver. Put plainly: Liver FGF4R mRNA expression by qPCR. It is filed as in vivo. The note with it: db/db mice, 0.2% arctigenin diet nine weeks, qPCR vs 18S rRNA, Student's t-test. The protocol: as §1, §2, §3
For a further series, the system named is SHP of the liver. Put plainly: Liver SHP mRNA expression by qPCR. It is filed as in vivo. The note with it: db/db mice, 0.2% arctigenin diet nine weeks, qPCR vs 18S rRNA, Student's t-test. The protocol: as §1, §2, §3
The next series deals with bile acid in feces. Put plainly: Measurement of the amount of bile acid in feces (UPLC-MS/MS) of db/db mice fed arctigenin diet. It is filed as in vivo. The following applies: 0.2% arctigenin in purified diet for nine weeks, pooled feces at end of administration. On the procedure: as §1, §2
Feces were collected from the rearing cage of each group at the end of the administration period, and the amount of bile acid in feces was measured. 10 mg of dry powder of pooled feces was suspended in 0.2 mL of 90% ethanol and incubated at 65° C. for 1 hour, and the supernatant after centrifugation and the washing of the precipitates were collected together. […]

The next series deals with small intestinal SHP. Description: Small intestinal SHP mRNA expression by qPCR. The format is in vivo. The following applies: db/db mice, 0.2% arctigenin diet nine weeks, qPCR vs 18S rRNA. On the procedure:
as §1, §2, §3

The subject of series [2] is total cholesterol in the liver. Description: Measurement of total cholesterol in liver of db/db mice fed arctigenin diet. It is filed as in vivo. The note with it: 0.2% arctigenin in purified diet for nine weeks, liver lipid extract. On the procedure:
Using 5-week-old male db/db mice (BKS.Cg−+Leprdb/+Leprdb/Jcl, purchased from CLEA Japan, Inc.) that were leptin receptor-deficient model, the experiments were started after one-week preliminary rearing. The animals were reared under the environment of 23.0±5° C. of temperature, 50.0±10% of humidity and 12 hours of light-dark cycle. The animal experiments were approved by animal care and use committee of Keio University and carried out based on animal experiment rules of Keio University. After preliminary rearing, mice were divided into two groups of (a) control group and (b) arctigenin administrated group (AG group) (each group n=8), and made AG group intake purified diet combined with arctigenin (>98.0%) 0.2% and purified diet (AIN-93G) for control group freely for nine weeks. After administration, 18-hour fasting was performed, and blood specimens were collected from abdominal vena cava under anesthesia, and the liver and the small intestine were sampled. Homogenate the liver obtained from each group and extracted total lipid using a lipid extraction kit (Lipid Extraction Kit (Chloroform-Free), Cell Biolabs, Inc.). A total cholesterol level was measured from lipid extract using cholesterol E-test Wako (Wako Pure Chemical Corporation). FIG. 2 is a graph showing the amount of total cholesterol in the liver (mg/dL) in control group and AG group. […]

The next series concerns small intestinal FGF15. Description: Small intestinal FGF15 mRNA expression by qPCR. The format is in vivo. The following applies: db/db mice, 0.2% arctigenin diet nine weeks, qPCR vs 18S rRNA. The protocol:
as §1, §2, §3

For a further series, the system named is Cyp8b1 of the liver. Put plainly: Liver Cyp8b1 mRNA expression by qPCR. It is filed as in vivo. The note with it: db/db mice, 0.2% arctigenin diet nine weeks, qPCR vs 18S rRNA, Student's t-test. The protocol:
as §1, §2, §3

Consider `COc1cc(C[C@H]2C(=O)OC[C@@H]2Cc2ccc(OC)c(OC)c2)ccc1O` [arctigenin], for which, in the series with FXR of the liver, the “relative mRNA expression level of FXR of the liver in comparison with control group” value is given as “significantly low”. Besides, in series [1], the solubility in water result was “water-insoluble”. Also, the “relative mRNA expression level of FGF4R of the liver in comparison with control group” value in the series with FGF4R of the liver is “significantly low”. In addition, the “relative mRNA expression level of SHP of the liver in comparison with control group” value with SHP of the liver is reported as “significantly low”. The “amount of total bile acid in feces in comparison with control group” value with bile acid in feces was “large amount”. The “relative mRNA expression level of small intestinal SHP in comparison with control group” value in the series with small intestinal SHP is reported as “low”. The “amount of total cholesterol in the liver versus control group” value in [2] is reported as “little amount”. Besides, in the series with small intestinal FGF15, the “relative mRNA expression level of small intestinal FGF15 in comparison with control group” value is given as “low”. For the same compound, the “relative mRNA expression level of Cyp8b1 of the liver in comparison with control group” value in the series with Cyp8b1 of the liver is on record as “significantly high”.
